Test [1] has as its target Butyrylcholinesterase (Equus caballus, UniProt Q9N1N9). The test is described as follows: Inhibition of equine serum Butyrylcholinesterase.
Test [2] can be described thus: Ratio of IC50 for equine serum Butyrylcholinesterase to IC50 for electric eel Acetylcholinesterase.
Test [3] has as its target Acetylcholinesterase (Electrophorus electricus, UniProt O42275). The test can be described thus: Inhibition of electric eel Acetylcholinesterase.
Test [4] in a line: Inhibition of amyloid-beta (1 to 42) aggregation at 20 uM after 48 hrs by fluorescence analysis using thioflavin T.

Sequence of Acetylcholinesterase (O42275 whole entry): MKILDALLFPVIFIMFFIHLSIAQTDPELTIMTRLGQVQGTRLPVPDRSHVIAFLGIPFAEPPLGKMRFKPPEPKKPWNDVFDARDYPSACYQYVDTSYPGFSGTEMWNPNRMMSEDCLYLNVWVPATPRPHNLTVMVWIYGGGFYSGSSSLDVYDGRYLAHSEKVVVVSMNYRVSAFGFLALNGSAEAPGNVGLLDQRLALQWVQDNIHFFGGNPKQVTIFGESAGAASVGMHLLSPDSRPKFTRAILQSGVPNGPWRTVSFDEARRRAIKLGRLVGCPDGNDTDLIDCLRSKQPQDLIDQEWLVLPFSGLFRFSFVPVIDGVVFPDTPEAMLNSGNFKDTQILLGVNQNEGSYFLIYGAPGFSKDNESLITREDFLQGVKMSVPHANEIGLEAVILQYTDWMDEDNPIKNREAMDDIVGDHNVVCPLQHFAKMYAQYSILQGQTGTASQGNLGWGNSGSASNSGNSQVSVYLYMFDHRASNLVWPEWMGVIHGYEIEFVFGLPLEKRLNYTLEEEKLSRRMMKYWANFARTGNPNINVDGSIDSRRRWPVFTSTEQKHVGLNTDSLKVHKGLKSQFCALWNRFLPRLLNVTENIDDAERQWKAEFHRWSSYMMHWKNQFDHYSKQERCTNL
Sequence of Butyrylcholinesterase (Q9N1N9 whole entry): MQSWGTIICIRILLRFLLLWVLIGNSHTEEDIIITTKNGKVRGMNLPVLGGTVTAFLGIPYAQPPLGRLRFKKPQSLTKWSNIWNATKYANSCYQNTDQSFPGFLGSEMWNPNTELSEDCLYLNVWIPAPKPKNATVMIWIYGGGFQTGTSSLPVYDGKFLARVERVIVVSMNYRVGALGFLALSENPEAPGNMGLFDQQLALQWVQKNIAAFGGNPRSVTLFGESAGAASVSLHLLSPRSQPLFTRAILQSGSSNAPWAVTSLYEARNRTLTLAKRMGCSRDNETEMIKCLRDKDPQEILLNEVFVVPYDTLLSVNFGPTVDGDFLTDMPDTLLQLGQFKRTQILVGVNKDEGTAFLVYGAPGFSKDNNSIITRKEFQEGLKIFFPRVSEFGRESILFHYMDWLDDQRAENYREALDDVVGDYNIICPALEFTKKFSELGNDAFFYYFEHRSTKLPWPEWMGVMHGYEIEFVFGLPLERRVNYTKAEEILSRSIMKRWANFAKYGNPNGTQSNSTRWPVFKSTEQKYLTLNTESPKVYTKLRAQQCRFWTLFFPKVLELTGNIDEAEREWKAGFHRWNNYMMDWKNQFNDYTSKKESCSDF

With `CCCN(CCC)c1cn(CCCCOc2c(OC)ccc3cc4[n+](cc23)CCc2cc3c(cc2-4)OCO3)nn1`, the 50% inhibitory concentration (IC50) (in general, the point on the concentration scale where inhibition reaches its midpoint) in test [1] was 4770 nM; in test [3] it was 270 nM. In addition, the Ratio IC50 in test [2] came to 17.7. The inhibition (as a rule, the drop in the measured response relative to a control, in per cent) in test [4] is 62.5%.
With `COc1ccc2cc3[n+](cc2c1OCCCn1cc(-c2ccccc2)nn1)CCc1cc2c(cc1-3)OCO2`, the 50% inhibitory concentration (IC50) turned out to be 2210 nM in test [1] and 310 nM in test [3]. For the same compound, the Ratio IC50 in test [2] is 7.13.
As for `CCCCN(CCCC)c1cn(CCCCOc2c(OC)ccc3cc4[n+](cc23)CCc2cc3c(cc2-4)OCO3)nn1`, the IC50 in test [1] stood at 5460 nM; in test [3], 469 nM. Also, in test [2], the Ratio IC50 was 11.6. This compound also yielded an inhibition in test [4] of 71.7%.
`CCCN(CCC)c1cn(CCCOc2c(OC)ccc3cc4[n+](cc23)CCc2cc3c(cc2-4)OCO3)nn1`: the IC50 came out at 1580 nM in test [1] and 140 nM in test [3]. In addition, the Ratio IC50 in test [2] is 11.3.
Regarding `COc1ccc2cc3[n+](cc2c1OCCCCn1cc(-c2ccccc2)nn1)CCc1cc2c(cc1-3)OCO2`, the results for the IC50 in test [1] and in test [3] were 1500 nM and 1320 nM, respectively. Moreover, in test [2], the Ratio IC50 was determined as 1.14. Also, the inhibition in test [4] was 60.6%.
`CCCCc1cn(CCCCOc2c(OC)ccc3cc4[n+](cc23)CCc2cc3c(cc2-4)OCO3)nn1`: the results for the half-inhibitory concentration (IC50) in test [1] and in test [3] were 2020 nM and 201 nM, respectively. Besides, in test [2], the Ratio IC50 worked out at 10. The compound further showed an inhibition in test [4] of 77.9%.
In turn, `COc1ccc2cc3[n+](cc2c1OC)CCc1cc2c(cc1-3)OCO2` came in with an inhibition in test [4] of 36.3%.
With `CCCCN(CCCC)c1cn(CCCOc2c(OC)ccc3cc4[n+](cc23)CCc2cc3c(cc2-4)OCO3)nn1`, the IC50 in test [1] is 2060 nM; in test [3], 243 nM. The Ratio IC50 in test [2] is 8.48.
For `CCCCc1cn(CCCOc2c(OC)ccc3cc4[n+](cc23)CCc2cc3c(cc2-4)OCO3)nn1` the same measures were 4060 nM, 165 nM and 24.6.

Values taken from ChEMBL document CHEMBL1765080, “Synthesis, biological evaluation and molecular modeling of novel triazole-containing berberine derivatives as acetylcholinesterase and β-amyloid aggregation inhibitors” (Bioorg Med Chem, 2011).
